According to patent publication US7928139B2 (Amgen Inc., priority 2006, dated 2011):
pIC50: −log10 of the molar value.

Target: HIF PHD2 (Homo sapiens, UniProt Q9GZT9)
Test: PHD2 inhibition assay (TR-FRET, VCB-Eu detection of hydroxylated P564-HIF1α peptide)
Type: biochemical
Details: 2 nM PHD2, 100 nM P564-HIF1α peptide, 0.25 μM 2-oxoglutarate, 100 μM FeCl2, 2 mM ascorbic acid
Method: Inhibition of HIF PHD2 activity was quantified utilizing the TR-FRET technology. HIF PHD2 catalyzes a hydroxyl modification on the proline residue of the P564-HIF1α peptide substrate (Biotin-DLEMLAPYIPMDDDFQL (SEQ ID NO: 7)) resulting in recognition and binding of the europylated Von Hippel-Lindau protein (pVHL), elongin B and elongin C heterotrimeric (VCB-Eu) complex.
The PHD2 inhibition assay was executed by addition of freshly dissolved FeCl2 to 178.57 μM (100 μM final concentration) in PHD2 Reaction Buffer containing 30 mM MES, pH 6, 10 mM NaCl, 0.25% Brij-35, 0.01% BSA, and 1% DMSO. 28 μL of the iron solution and 2 μL of inhibitor compounds serially diluted in 100% DMSO (5% DMSO final) were added to black polypropylene 96-well microtiter plates. To that, 10 μL of 10 nM PHD2 (2 nM final) was added to all wells of the plate except for the 8 wells of column 12 (LO control), and allowed to incubate at room temperature on the shaker for one hour. Column 6 was the HI control containing PHD2 enzyme and 5% DMSO vehicle, but no inhibitor compound. To initiate the PHD2 enzymatic reaction, 10 μL of a solution containing 500 nM P564-HIF1α peptide (100 nM final), 10 mM ascorbic acid (2 mM final), and 1.25 μM 2-oxoglutarate (α-ketoglutarate; 0.25 μM final) in PHD2 Reaction Buffer was added to all wells of the plate and allowed to incubate on the shaker at room temperature for one hour.
The reaction was terminated by addition of 25 μL TR-FRET Buffer (50 mM TRIS-HCl, pH 9, 100 mM NaCl, 0.05% BSA, and 0.5% Tween-20) containing 150 mM succinate (product inhibitor; 50 mM final), 75 nM streptavidin-APC (25 nM final), and 7.5 nM VCB-Eu (2.5 nM final). The TR-FRET detection reagents were placed on a shaker for 1 hour to reach binding equilibrium before reading on the Discovery platform (PerkinElmer). Europium is excited at 315 nm and phosphoresces at 615 nm with a large Stoke's shift. APC, in turn, emits at 655 nm upon excitation at 615 nm. The TR-FRET signal is measured as the ratio of the APC 655 nm signal divided by the internal europium reference 615 nm emission signal.
The POC (percentage of control) was determined by comparing the signal from hydroxylated peptide substrate in the enzyme reaction containing inhibitor compound with that from PHD2 enzyme with DMSO vehicle alone (HI control), and no enzyme (LO control). POC was calculated using the formula: % control (POC)=(cpd−average LO)/(average HI−average LO)*100. Data (consisting of POC and inhibitor concentration in μM) was fitted to a 4-parameter equation (y=A+((B−A)/(1+((x/C)^D))), where A is the minimum y (POC) value, B is the maximum y (POC), C is the x (cpd concentration) at the point of inflection and D is the slope factor) using a Levenburg-Marquardt non-linear regression algorithm.

Chain of HIF PHD2 (Q9GZT9 whole entry): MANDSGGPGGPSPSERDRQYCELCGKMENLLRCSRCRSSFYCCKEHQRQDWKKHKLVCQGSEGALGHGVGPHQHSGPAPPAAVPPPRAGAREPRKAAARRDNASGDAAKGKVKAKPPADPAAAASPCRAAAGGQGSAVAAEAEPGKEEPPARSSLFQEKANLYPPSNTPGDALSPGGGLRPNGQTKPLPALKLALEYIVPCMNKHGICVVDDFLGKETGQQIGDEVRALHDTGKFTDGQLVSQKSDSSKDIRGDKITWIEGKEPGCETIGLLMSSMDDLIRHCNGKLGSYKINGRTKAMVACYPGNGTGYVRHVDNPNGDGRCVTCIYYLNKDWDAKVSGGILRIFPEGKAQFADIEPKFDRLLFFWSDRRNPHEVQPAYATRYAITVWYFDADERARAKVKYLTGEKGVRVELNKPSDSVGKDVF

First: C[C@@]1(c2ccc(Cl)cc2)C(=O)C(C(=O)NCC(=O)O)=C(O)c2cc(Cl)ccc21 (single isomer, unassigned) [Example 29]
Second: C[C@]1(c2ccc(Cl)cc2)C(=O)C(C(=O)NCC(=O)O)=C(O)c2cc(Cl)ccc21 (single isomer, unassigned) [Example 30]
The pIC50 of the first is higher: 6.30 to 7.00 for the first, 6.00 to 6.30 for the second. The first is the more potent here.

First: CCC1(C)C(=O)C(C(=O)NCC(=O)O)=C(O)c2cc(Cl)ccc21 (single isomer, unassigned) [Example 78]
Second: CC1(C)C(=O)C(C(=O)NCC(=O)O)=C(O)c2cc(Cl)ccc21 [Example 2, N-((6-Chloro-4-hydroxy-1,1-dimethyl-2-oxo-naphthalen-3-yl)carbonyl)glycine]
The pIC50 of the first is lower: 6.30 to 7.00 for the first, > 7.00 for the second.

First: C[C@@]1(c2ccccc2)C(O)=C(C(=O)NCC(=O)O)C(=O)c2ccccc21 (single isomer, unassigned) [Example 114, N-(((4S)-3-Hydroxy-4-methyl-1-oxo-4-phenyl-1,4-dihydro-2-naphthalenyl)carbonyl)glycine or N-(((4R)-3-Hydroxy-4-methyl-1-oxo-4-phenyl-1,4-dihydro-2-naphthalenyl)carbonyl)glycine]
Second: CC1(C)C(=O)C(C(=O)NCC(=O)O)=C(O)c2cc(-c3cccnc3)ccc21 [Example 5, N-((4-Hydroxy-1,1-dimethyl-2-oxo-6-(3-pyridinyl)-naphthalen-3-yl)carbonyl)glycine]
The pIC50 of the first is lower: 6.30 to 7.00 for the first, > 7.00 for the second. The second is the more potent here.

First: C[C@@]1(C#N)C(=O)C(C(=O)CCC(=O)O)=C(O)c2cc(Cl)ccc21 (single isomer, unassigned) [Example 120, 4-(7-chloro-4-cyano-1-hydroxy-4-methyl-3-oxo-3,4-dihydronaphthalen-2-yl)-4-oxobutanoic acid]
Second: CC1(C#N)C(=O)C(C(=O)NCC(=O)O)=C(O)c2ccc(Cl)cc21 (single isomer, unassigned) [Example 141]
The pIC50 of the first is lower: 5.00 to 6.00 for the first, > 7.00 for the second. The second is the more potent here.

Compared with `C[C@@]1(C#N)C(=O)C(C(=O)CCC(=O)O)=C(O)c2cc(Cl)ccc21` (single isomer, unassigned) [Example 124, (R)-4-(7-chloro-4-cyano-1-hydroxy-4-methyl-3-oxo-3,4-dihydronaphthalen-2-yl)-4-oxobutanoic acid or (S)-4-(7-chloro-4-cyano-1-hydroxy-4-methyl-3-oxo-3,4-dihydronaphthalen-2-yl)-4-oxobutanoic acid], `C[C@@]1(C#N)C(=O)C(C(=O)NCC(=O)O)=C(O)c2cc(F)ccc21` (single isomer, unassigned) [Example 135, (R)-2-(1-cyano-6-fluoro-4-hydroxy-1-methyl-2-oxo-1,2-dihydronaphthalene-3-carboxamido) acetic acid or (S)-2-(1-cyano-6-fluoro-4-hydroxy-1-methyl-2-oxo-1,2-dihydronaphthalene-3-carboxamido) acetic acid] is higher in pIC50: 5.00 to 6.00 for the first, > 7.00 for the second. The second is the more potent here.

`C[C@@]1(C#N)C(=O)C(C(=O)NCC(=O)O)=C(O)c2ccc(F)cc21` (single isomer, unassigned) [Example 137, (R)-2-(1-cyano-7-fluoro-4-hydroxy-1-methyl-2-oxo-1,2-dihydronaphthalene-3-carboxamido) acetic acid or (S)-2-(1-cyano-7-fluoro-4-hydroxy-1-methyl-2-oxo-1,2-dihydronaphthalene-3-carboxamido) acetic acid] and `CC1(C#N)C(=O)C(C(=O)NCC(=O)O)=C(O)c2ccc(Br)cc21` (single isomer, unassigned) [Example 139] cannot be ordered by pIC50: > 7.00 for the first, > 7.00 for the second.

`C[C@@]1(C#N)C(=O)C(C(=O)NCC(=O)O)=C(O)c2cc(F)c(F)cc21` (single isomer, unassigned) [Example 142, (R)-2-(1-cyano-6,7-difluoro-4-hydroxy-1-methyl-2-oxo-1,2-dihydronaphthalene-3-carboxamido) acetic acid or (S)-2-(1-cyano-6,7-difluoro-4-hydroxy-1-methyl-2-oxo-1,2-dihydronaphthalene-3-carboxamido) acetic acid] and `CC1(C)C(=O)C(C(=O)NCC(=O)O)=C(O)c2cc(F)ccc21` [Example 13, N-((6-Fluoro-4-hydroxy-1,1-dimethyl-2-oxo-naphthalene-3-yl)carbonyl)glycine] cannot be ordered by pIC50: > 7.00 for the first, > 7.00 for the second.

`O=C(O)CNC(=O)C1=C(O)c2cc(Cl)ccc2C2(CCOCC2)C1=O` [Example 1, N-((6-Chloro-4-hydroxy-2-oxo-2′,3′,5′,6′-tetrahydro-2H-spiro[naphthalene-1,4′-pyran]-3-yl)carbonyl)glycine] and `O=C(O)CNC(=O)C1=C(O)c2cc(Cl)ccc2[C@@]2(CCOC2)C1=O` [Example 10, N-(((3R)-6′-Chloro-4′-hydroxy-2′-oxo-4,5-dihydro-spiro[furan-3,1′-naphthalen]-3′-yl)carbonyl)glycine] cannot be ordered by pIC50: > 7.00 for the first, > 7.00 for the second.

`O=C(O)CNC(=O)C1=C(O)c2cc(C(F)(F)F)ccc2C2(CCOCC2)C1=O` [Example 3, N-((4-Hydroxy-2-oxo-6-(trifluoromethyl)-2′,3′,5′,6′-tetrahydro-2H-spiro[naphthalene-1,4′-pyran]-3-yl)carbonyl)glycine] and `O=C(O)CNC(=O)C1=C(O)c2cc(F)ccc2C2(CCOCC2)C1=O` [Example 17, N-((6-Fluoro-4-hydroxy-2-oxo-2′,3′,5′,6′-tetrahydro-spiro[naphthalene-1,4′-pyran]-3-yl)carbonyl)glycine] cannot be ordered by pIC50: > 7.00 for the first, > 7.00 for the second.

First: CC1(C)C(=O)C(C(=O)NCC(=O)O)=C(O)c2cc(C(F)(F)F)ccc21 [Example 4, N-((4-Hydroxy-1,1-dimethyl-2-oxo-6-(trifluoromethyl)-naphthalen-3-yl)carbonyl)glycine]
Second: CC1(C)C(=O)C(C(=O)NCC(=O)O)=C(O)c2cc(-c3cncc(F)c3)ccc21 [Example 9, N-((6-(5-Fluoro-3-pyridinyl)-4-hydroxy-1,1-dimethyl-2-oxo-naphthalen-3-yl)carbonyl)glycine]
The pIC50 of the first is higher: > 7.00 for the first, 5.00 to 6.00 for the second. The first is the more potent here.

`Cc1ccc(-c2ccc3c(c2)C(O)=C(C(=O)NCC(=O)O)C(=O)C3(C)C)c(F)n1` [Example 6, N-((6-(2-Fluoro-6-methyl-3-pyridinyl)-4-hydroxy-1,1-dimethyl-2-oxo-naphthalen-3-yl)carbonyl)glycine] and `Cc1ncccc1-c1ccc2c(c1)C(O)=C(C(=O)NCC(=O)O)C(=O)C2(C)C` [Example 8, N-((4-Hydroxy-1,1-dimethyl-6-(2-methyl-3-pyridinyl)-2-oxo-naphthalen-3-yl)carbonyl)glycine] fall in the same range of pIC50: 6.30 to 7.00 for the first, 6.30 to 7.00 for the second.

`Cc1cc(-c2ccc3c(c2)C(O)=C(C(=O)NCC(=O)O)C(=O)C3(C)C)ccn1` [Example 7, N-((4-Hydroxy-1,1-dimethyl-6-(2-methyl-4-pyridinyl)-2-oxo-naphthalen-3-yl)carbonyl)glycine] and `CCC1(C)C(=O)C(C(=O)NCC(=O)O)=C(O)c2cc(Cl)ccc21` (stereo not shown) [Example 15, N-((6-Chloro-1-ethyl-4-hydroxy-1-methyl-2-oxo-naphthalen-3-yl)carbonyl)glycine] fall in the same range of pIC50: 6.30 to 7.00 for the first, 6.30 to 7.00 for the second.

`O=C(O)CNC(=O)C1=C(O)c2cc(Cl)ccc2[C@]2(CCOC2)C1=O` [Example 11, N-(((3S)-6′-Chloro-4′-hydroxy-2′-oxo-4,5-dihydro-spiro[furan-3,1′-naphthalen]-3′-yl)carbonyl)glycine] and `O=C(O)CNC(=O)C1=C(O)c2cc(Cl)ccc2C2(CCOC2)C1=O` (stereo not shown) [Example 12, N-((6′-Chloro-4′-hydroxy-2′-oxo-4,5-dihydro-2′H-spiro[furan-3,1′-naphthalen]-3′-yl)carbonyl)glycine] cannot be ordered by pIC50: > 7.00 for the first, > 7.00 for the second.

`COc1cc2c(cc1Br)C1(CCOCC1)C(=O)C(C(=O)NCC(=O)O)=C2O` [Example 14, N-((7-Bromo-4-hydroxy-6-(methyloxy)-2-oxo-2′,3′,5′,6′-tetrahydro-spiro[naphthalene-1,4′-pyran]-3-yl)carbonyl)glycine] and `COc1ccc2c(c1)C(O)=C(C(=O)NCC(=O)O)C(=O)C21CCOCC1` [Example 16, N-((4-Hydroxy-6-(methyloxy)-2-oxo-2′,3′,5′,6′-tetrahydro-spiro[naphthalene-1,4′-pyran]-3-yl)carbonyl)glycine] cannot be ordered by pIC50: > 7.00 for the first, > 7.00 for the second.
